Laboratory results reported in patent publication EP1200395B1, “UREA DERIVATIVES AS INHIBITORS OF CCR-3 RECEPTOR” (KIRIN BEER KABUSHIKI KAISHA, priority 1999, dated 2001).

Legend:
CCR-3 [1] = biological target: T1, CCR-3 (Homo sapiens, UniProt P51677); test: Eotaxin-induced chemotaxis of CCR-3 transfectant cells (CCR3/U937); format: cell-based; parameters: expressed in transfected cells; host or cells: U937; conditions: eotaxin 1 x 10^-9 M; for inhibition at 10 µM: U-937; for inhibition at 10 µM / Chemotaxis Assay 10 µM (inhibition %): 10 µM test compound; for CCR-3 Transfectant Chemotaxis Assay 6.25 µg/ml (inhibition %): 6.25 µg/ml test compound, CCR3/U937 cells (Table 3b)
T1 sequence (P51677 1-355): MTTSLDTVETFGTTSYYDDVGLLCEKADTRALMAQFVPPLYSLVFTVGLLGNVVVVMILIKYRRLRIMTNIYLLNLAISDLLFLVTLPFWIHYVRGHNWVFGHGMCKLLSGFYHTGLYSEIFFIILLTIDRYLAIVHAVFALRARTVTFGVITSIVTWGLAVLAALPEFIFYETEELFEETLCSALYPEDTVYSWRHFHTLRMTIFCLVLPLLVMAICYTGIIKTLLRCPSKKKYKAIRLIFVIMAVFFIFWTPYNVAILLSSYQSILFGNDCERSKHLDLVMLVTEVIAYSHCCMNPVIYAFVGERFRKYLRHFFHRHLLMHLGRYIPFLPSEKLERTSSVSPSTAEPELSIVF

[2] = test system: human-derived eosinophils; test: Eotaxin-induced chemotaxis of cultured eosinophils; format: cell-based; conditions: 10.00 µM compound, human eotaxin 1 x 10^-9 M, 37°C for 1 hour; for inhibition at 10 µM: Eosinophil
Protocol: The inhibitory activity of the compounds against eotaxin-mediated chemotaxis of human-derived eosinophils was determined assay described below. Eosinophils were prepared from culture of human cord blood mononuclear cells as described by Ohashi, H. et al., Int Arch Allergy Immunol. (1999) 118, 44-50. For the assay, eosinophils were resuspended at 1 x 10^7 cells/ml in assay medium (RPMI 1640 medium containing 0.1 % bovine serum albumin (BSA)). The chemotaxis assay was performed in a 24-well culture plate. Human eotaxin suspended in assay medium was added into wells at 1 x 10^-9 M with test compounds at various concentrations. For a positive control, eotaxin was added without a test compound, and for a negative control, neither eotaxin nor a test compound was added to the wells. Chemotaxicell (Kurabo Co., Ltd.) having 5 micrometers pore size were inserted into each well and 100 microliters of eosinophil suspension were added to the top chamber. The plates were incubated at 37°C for 1 hour. After incubation, migrated cells in lower wells were diluted and counted by particle size distribution analyzer (CDP-500, Sysmex Co., Ltd.).

[3] = test system: collagen-induced arthritis; test: Type II collagen-induced arthritis in mice, clinical score; format: in vivo, Male DBA/1 mice; conditions: 20 mg/kg per day subcutaneously starting at 2nd immunization; versus control vehicle; Figure 1A/1B
CCR-3 [4] = biological target: T1, CCR-3; test: Calcium mobilization assay (inhibition of eotaxin-induced intracellular calcium mobilization in CCR3/HEK293 cells); format: cell-based; parameters: expressed in transfected cells; conditions: 6.25 µg/ml test compound; eotaxin 10 nM; CCR3/HEK293 cells (Table 2a)
Protocol: Compounds 93-162 used in this assay were synthesized by using the method described in Example 6.
CCR-3 transfectant cells (CCR3/HEK293) were isolated and resuspended with assay buffer (20 mM HEPES, 125 mM NaCl, 5 mM KCl; 0.5 mM glucose, 1 mM CaCl2, 1 mM MgCl2, 0.1 % BSA). After washing CCR3/HEK293 cells with assay buffer, cells were loaded with Fura-2/AM in assay buffer for 1 hour at room temperature. Cells were washed and resuspended with assay buffer at 5 x 10^6 cells/ml in assay buffer, and placed in a tissue culture plate (Falcon, no. 3296). Test compounds dissolved in DMSO were added to the wells, followed by eotaxin (10 nM at final concentration). Cells were excited at 340 nm and 380 nm in a fluorimeter (ARGUS50, FDSS2000, Hamamatsu Photonics) and the relative ratio of the fluorescence emitted at 510 nm was recorded. For a control, DMSO without a test compound was added. Intracellular calcium mobilization was calculated as described in Krogel C. et al. , FEBS Let. (1989) 243 , 41-46.

[5] = test system: eosinophil infiltration to bronchoalveolar lavage fluid (BALF); test: Eosinophil infiltration in bronchoalveolar lavage fluid (BALF), murine asthma model; format: in vivo, Male BALB/c mice; conditions: administered intraperitoneally for 9 days; two hundred cells counted per slide; Figure 2C
Protocol: (§1) Male BALB/c mice were immunized by an intraperitoneal injection of 10 µg OVA adsorbed to 1 mg aluminum hydroxide gel (alum). A booster injection of the same dose of alum-adsorbed OVA was given 5 days later. Unitnmunized control mice received saline.
(§2) Twelve days after primary immunization, both the immunized and unimmunized mice were exposed to aerosolized antigen. Aerosolization of OVA was performed using a nose-only aerosol chamber adapted for mice. Animals were exposed for 10 minutes to 5 mg/ml OVA aerosolized by an ultrasonic nebulizer (NE-U12, Omron, Tokyo, Japan) driven by a vacuum pump. The antigen bronchoprovocation was repeated on day 16 and day 20 under the same conditions. Compound No. 298 (CPD No. 298) was dissolved in saline containing 2 % DMSO and 2 % Cremophore and administered intraperitoneally for 9 days, starting on the first day of antigen inhalation.
Immediately after the measurement of airway reactivity to acethycholine, BALF was collected by lavaging whole-lung three times with 0.7-ml aliquots of physiological saline containing 0.1 % BSA via the tracheal cannula while gently massaging the thorax. The BALF recovered from one mouse was pooled, centrifuged, and the cells were resuspended in 100 µl saline containing 0.1 % BSA. Cell numbers were determined using a hemocytometer and 2 x 10^4 cells were cytecetrifuged onto a glass slide. […]

[6] = test system: bronchoconstriction provoked by acetylcholine; test: Airway hyperreactivity: bronchoconstriction provoked by acetylcholine (murine asthma model, OVA-immunized mice); format: in vivo, Male BALB/c mice; conditions: administered intraperitoneally for 9 days, starting on the first day of antigen inhalation; Figure 2A
Protocol: as §1, §2
Twenty-four hours after the final aerosol exposure, bronchoconstriction was measured by the overflow method of Konzett and Rössler. […] Bronchoconstriction was recorded on a flatbed recorder (Model FBR-252A, TOA Electronics Ltd., Tokyo, Japan). […]

Structure (SMILES) | inhibition at 10 µM (CCR-3 [1]; CCR3/U937 cells (Table 3a)) [%] | CCR-3 Transfectant Chemotaxis Assay 6.25 µg/ml (inhibition %) (CCR-3 [1]) [%] | Ca^2+ mobilization 6.25 µg/ml (inhibition %) (CCR-3 [4]) [%] | inhibition at 10 µM [2] [%] | other results
CCN(CCCNC(=O)Nc1ccccc1)CCc1ccc(Cl)cc1 [Compound 1, N-Phenylcarbamoyl-N'-[2-(4-chlorophenyl)ethyl]-N'-ethyl-1,3-diaminopropane] | 100 |  |  | 100 | 
COC(=O)CCCN(CCCNC(=O)Nc1ccc(Br)cc1)Cc1ccco1 [Compound 38] |  |  |  |  | Chemotaxis Assay 10 µM (inhibition %) (CCR-3 [1]; CCR3/U937 cells (Table 3a)): 46%; Cultured Eosinophil Chemotaxis assay 10.00 µM (inhibition %) [2]: 11%
O=C(O)CCCN(CCCNC(=O)Nc1ccc(Cl)c(Cl)c1)C1CCCc2ccccc21 (centres unmarked) [Compound 65, 4-[[3-(3,4-Dichlorophenylureido)propyl](1,2,3,4-tetrahydro-1-naphthyl)amino]butanoic acid] | 100 |  |  | 100 | 
COc1cc(CN(CCCNC(=O)Nc2ccc(Br)cc2)CCCC(=O)O)cc(OC)c1OC [Compound 66] |  |  |  |  | Chemotaxis Assay 10 µM (inhibition %) (CCR-3 [1]; CCR3/U937 cells (Table 3a)): 32%; Cultured Eosinophil Chemotaxis assay 10.00 µM (inhibition %) [2]: 44%
O=C(O)CCCN(CCCNC(=O)Nc1ccc(Br)cc1)Cc1ccccc1 [Compound 67] |  |  |  |  | Chemotaxis Assay 10 µM (inhibition %) (CCR-3 [1]; CCR3/U937 cells (Table 3a)): 100%; Cultured Eosinophil Chemotaxis assay 10.00 µM (inhibition %) [2]: 71%
CC[N+](CC)(CCCNC(=O)Nc1ccccc1)CCc1ccc(Cl)cc1 [Compound 91, [3-(Phenylureido)propyl][2-(4-chlorophenyl)ethyl]-diethylammonium iodide] |  |  |  | 100 | inhibition at 10 µM (CCR-3 [1]; CCR3/U937 cells (Table 3c)): 100%
CC[N+](CC)(CCCNC(=O)Nc1ccc(Br)cc1)CCc1ccc(Cl)cc1 [Compound 92, [3-(4-Bromophenylureido)propyl][2-(4-chlorophenyl)ethyl]-diethylammonium iodide] |  |  |  | 100 | inhibition at 10 µM (CCR-3 [1]; CCR3/U937 cells (Table 3c)): 100%
Cc1cccc(NC(=O)NCCCN(Cc2ccc3c(c2)OCO3)CC(C)C)c1 [Compound 136] |  | 32 | 63 |  | 
CCN(CCCNC(=O)Nc1cccc(C)c1)CCc1ccccc1 [Compound 137] |  | 40 | 50 |  | 
CCOC(=O)C1CC1CN(CCCNC(=O)Nc1cccc(C)c1)CCc1ccccc1 (centres unmarked) [Compound 138] |  | 31 | 56 |  | 
CCOC(=O)C1CC1CN(CCCNC(=O)Nc1cccc(Cl)c1)C1CCCc2ccccc21 (centres unmarked) [Compound 149] |  | 31 | 56 |  | 
CCOC(=O)C1CC1CN(CCCNC(=O)Nc1cccc(Cl)c1)CCc1ccc(Cl)c(Cl)c1 (centres unmarked) [Compound 155] |  | 56 | 69 |  | 
CC[N+](CCCNC(=O)Nc1ccccc1)(CCc1ccc(Cl)cc1)Cc1ccc(Cl)cc1.[I-] (centres unmarked) [Compound 298, [3-(Phenylureido)propyl][2-(4-chlorophenyl)ethyl](4-chlorobenzyl)ethylammonium iodide] |  |  |  |  | inhibition at 10 µM (CCR-3 [1]; CCR3/U937 cells (Table 3c)): 100%; eosinophil infiltration to bronchoalveolar lavage fluid (BALF) [5]: significantly suppressed eosinophil infiltration; clinical score, collagen-induced arthritis [3]: marked prevention in clinical score; bronchoconstriction provoked by acetylcholine [6]: Inhibition of bronchoconstriction

Further lines, with some results ahead:

inhibition at 10 µM (CCR-3 [1]; CCR3/U937 cells (Table 3a)) [%] | CCR-3 Transfectant Chemotaxis Assay 6.25 µg/ml (inhibition %) (CCR-3 [1]) [%] | Ca^2+ mobilization 6.25 µg/ml (inhibition %) (CCR-3 [4]) [%] | Structure (SMILES) | inhibition at 10 µM [2] [%] | other results
100 |  |  | CCN(CCCNC(=O)Nc1ccc(Br)cc1)CCc1ccc(Cl)cc1 [Compound 3, N-(4-Bromophenylcarbamoyl)-N'-[2-(4-chlorophenyl)ethyl]-N'-ethyl-1,3-diaminopropane] | 100 | 
98 |  |  | O=C(O)CCCN(CCCNC(=O)Nc1ccc(Br)cc1)C1CCCc2ccccc21 (centres unmarked) [Compound 60, 4-[[3-(4-Bromophenylureido)propyl](1,2,3,4-tetrahydro-1-naphthyl)amino]butanoic acid] | 100 | clinical score, collagen-induced arthritis [3]: marked prevention in clinical score
100 |  |  | C[C@H](c1ccccc1)N(CCCNC(=O)Nc1ccc(Br)cc1)CCCC(=O)O [Compound 61, 4-[[3-(4-Bromophenylureido)propyl][(1R)-1-phenylethyl]amino]-butanoic acid] | 100 | 
